Results on 7 compounds are retold here after paper PMC7011920, “Synthesis and biological evaluation of stilbene derivatives coupled to NO donors as potential antidiabetic agents” (Journal of Enzyme Inhibition and Medicinal Chemistry, 2018).

Read-outs that look alike come from different tables or passages of the source. Some results are limits rather than exact numbers.

A word on the IC50: it is the concentration needed to halve the response being measured. What is called melting point is the temperature, or range, at which the solid turns liquid.

In data set [1] the test system is AGEs (advanced glycation end products) formation. Put plainly: In vitro inhibitory activity of AGEs formation (bovine serum albumin/glucose, fluorescence). The note with it: 50% inhibition of fluorescence intensity of AGE relative to 0.1% DMSO; mean ± SD (n = 3). The protocol: Advanced glycation end products are a group of complex and heterogeneous compounds, which are implicated in a number of biochemical abnormalities associated with diabetes[21]^,[22]. Therefore, the discovery of AGEs inhibitors would be beneficial to the prevention and treatment of diabetic or other pathogenic complications.
To prepare the AGE reaction solution, 10 mg/ml of bovine serum albumin in 50 mM PBS (pH 7.4) was added to 0.2 M glucose, and 0.02% sodium azide was added to prevent bacterial growth. The reaction mixture (3 ml) was then mixed with various concentrations (0.5–1000 µg/ml) of the target compounds (1 ml) dissolved in DMSO. After incubating at 37 °C for 14 d, the fluorescence intensity of AGE was determined by a fluorospectrophotometer (PE, Cincinnati, OH) with excitation and emission wavelengths at 350 nm and 420 nm[30], respectively. All experiments were run in triplicate. Aminoguanidine hydrochloride was used as a reference compound. The inhibition rate of AGEs formation and the IC50 value of each sample were calculated according to the formula. Inhibition rate %={[(AC−AB)−(AS−ASB)]/(AC−AB)}×100% where AC is the absorbance of control group (1.0 ml glucose +1.0 ml bovine serum albumin +1.0 ml sodium azide +1.0 ml DMSO); AB is the absorbance of blank group (1.0 ml PBS +1.0 ml bovine serum albumin +1.0 ml sodium azide +1.0 ml DMSO); AS is the absorbance of sample group (1.0 ml glucose +1.0 ml bovine serum albumin +1.0 ml sodium azide +1.0 ml target compound solution or aminoguanidine hydrochloride solution); ASB is the absorbance of sample blank group (1.0 ml PBS +1.0 ml bovine serum albumin +1.0 ml sodium azide +1.0 ml target compound solution or aminoguanidine hydrochloride solution).

For data set [2], the target named is T1, α-Glucosidase (Saccharomyces cerevisiae, UniProt P53341).
T1 construct: purchased Sigma Aldrich G0660-750UN
Put plainly: biochemical. The protocol: α-Glucosidases, enzymes anchored in the brush border of the small intestine, are responsible for catalysing the hydrolysis of carbohydrates.
α-Glucosidase (G0660-750UN, Sigma Aldrich, St. Louis, MO) and 4-nitrophenyl α-D-glucopyranoside (PNPG, Macklin) were dissolved in phosphate buffer (pH 6.8, 100 mM), and the test compounds were dissolved in DMSO solution. The experiment was divided into blank group, control group, sample blank group and sample group. The reagents were loaded in 96-well plates at the dose of the table (Table 3). The solution was bathed in 37 °C water for 10 min, after the end, enzyme solution was added. After reaction at 37 °C for 20 min, 70 µL Na2CO3 solution ([…]) was added to stop the reaction. All experiments were run in triplicate. […] Since PNPG can produce glucose and p-nitrophenol (PNP) under the action of α-glucosidase, PNP has the greatest absorption at 405 nm. The absorbance was determined by the microplate reader, and the inhibition rate of α-glucosidase and the IC50 value of each sample were calculated according to the formula. Inhibition rate %={[(AC−AB)−(AS−ASB)]/(AC−AB)}×100% where AC is the absorbance of control group; AB is the absorbance of blank group; AS is the absorbance of sample group; ASB is the absorbance of sample blank group.

Data set [3] deals with T2, aldose reductase (ALR2) (Mus musculus, UniProt P45376).
T2 construct: After homogenisation and centrifugation, the crude ALR2 from mice was obtained; from tissue
In words: In vitro ALR2 inhibitory activity (crude enzyme, NADPH decrease at 340 nm). The format is biochemical, mice. The protocol:
The enzyme aldose reductase (ALR2) is a member of the aldo–keto reductase superfamily. The development and progression of chronic diabetic complications are confirmed to be quite related to the activation and/or over expression of ALR2[25]. Therefore, ALR2 inhibitors may play a critical role in preventing or treating these complications.
After homogenisation and centrifugation, the crude ALR2 from mice was obtained. The inhibitory activity of the compounds on ALR2 was carried out using crude enzyme and different concentrations of the compounds (1–1000 µg/ml) in 200 mM PBS (pH 6.2) containing 0.10 mM NADPH. The reaction was initiated by addition of glyceraldehyde and the decrease in the optical density of NADPH at 340 nm was recorded for 3 min. All experiments were run in triplicate. IC50 of the compounds was calculated. The flavonoid quercetin was used as a reference in the ALR2 assay.

For data set [4], the system named is STZ-induced diabetic mice. In words: Acute hypoglycaemic assay in STZ-diabetic mice. Type of data set: in vivo. The note with it: for Blood glucose concentration: mean ± SEM, six mice. The protocol: The antidiabetic activity was determined by using a standard method. […] Especially, compound 7c caused significant decreases in blood glucose levels when compared with vehicle-treated groups (p < .05). […] In STZ-diabetic animals, the hypoglycaemic effect of pterostilbene (40 mg/kg of bw) was larger than 50% since 5 h and persisted throughout the experiment. Target compound 7c (40 mg/kg of bw) caused significant decreases in blood glucose levels compared with pterostilbene (40 mg/kg of bw).
Type II DM was induced in mice by a single intraperitoneal injection of freshly prepared STZ (Sigma Aldrich, St. Louis, MO) dissolved in 0.1 M citrate buffer, pH 4.5, in a […] of 120 mg/kg of bw. After seven days of STZ administration, blood glucose levels of each mouse were determined. Mice with blood glucose levels higher than 11 mM were considered diabetic and were included in the study.
STZ-induced diabetic mice and normal mice were placed in single cages with wire-net floors and deprived of food for 12 h before experimentation but allowed free access to tap water throughout. The compounds (at the doses of 10, 40, and 100 mg/kg of bw) were suspended in 0.05% Tween-80 in saline solution. Glibenclamide (10 mg/kg of bw) was suspended in the same vehicle. The target compounds were freshly prepared immediately before experimentation and administered by the intragastrical route at the doses of 10 ml/kg of bw. Control mice received only the vehicle (0.05% Tween-80 in saline solution) by the same route. Blood glucose levels were measured at 0, 1.5, 3, 5, 7, and 9 h after drugs administration.

The mark [5] stands for this setting: read-out: IC50 value, α-Glucosidase inhibitory activity.
Setting [6] is: read-out: IC50 value, ALR2 inhibitory activity.
The mark [7] stands for this setting: dose 40 mg/kg per os, 1.5 h vs 0 h.
[8] abbreviates: dose 40 mg/kg per os, 3 h vs 0 h.
Setting [9] is: dose 40 mg/kg per os, 5 h vs 0 h.
Setting [10] is: dose 40 mg/kg per os, 7 h vs 0 h.
The mark [11] stands for this setting: dose 40 mg/kg per os, 9 h vs 0 h.

T1 sequence (P53341 whole entry): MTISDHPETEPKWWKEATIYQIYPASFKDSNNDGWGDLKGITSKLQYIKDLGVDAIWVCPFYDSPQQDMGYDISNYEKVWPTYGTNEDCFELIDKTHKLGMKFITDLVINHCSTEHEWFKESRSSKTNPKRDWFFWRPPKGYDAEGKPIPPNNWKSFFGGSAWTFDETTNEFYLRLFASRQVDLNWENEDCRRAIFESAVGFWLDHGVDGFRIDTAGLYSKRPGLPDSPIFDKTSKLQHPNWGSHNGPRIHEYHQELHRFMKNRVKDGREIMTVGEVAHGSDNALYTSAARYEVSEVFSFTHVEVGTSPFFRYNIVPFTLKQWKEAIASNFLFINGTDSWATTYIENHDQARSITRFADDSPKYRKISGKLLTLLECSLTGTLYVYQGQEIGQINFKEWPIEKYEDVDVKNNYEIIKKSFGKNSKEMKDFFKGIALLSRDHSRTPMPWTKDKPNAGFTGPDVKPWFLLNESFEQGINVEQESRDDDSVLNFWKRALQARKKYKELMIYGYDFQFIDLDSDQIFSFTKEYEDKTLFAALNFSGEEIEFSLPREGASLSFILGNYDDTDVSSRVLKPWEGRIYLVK

Compound `COc1cc(/C=C/c2ccc(OCCO[N+](=O)[O-])cc2)cc(OC)c1` [3a, O4′-Nitrooxyethyl pterostilbene] registered a melting point of 142.2 to 143.2 °C. Further, half-maximal inhibition in data set [1] (IC50) was put at 2.9 ± 0.09 µM. Further, in data set [2] (setting [5]), the concentration for half-maximal inhibition (IC50) is greater than 1000 µM. Also, the IC50 in data set [3] (setting [6]) is greater than 1000 µM.

In turn, `COc1cc(/C=C/c2ccc(OCCCCO[N+](=O)[O-])cc2)cc(OC)c1` [3b] showed a melting point of 110.9 to 111.3 °C. Further, in data set [1], the IC50 came out at 2.39 ± 0.11 µM. Further, in data set [2] (setting [5]), the IC50 is greater than 1000 µM. The IC50 in data set [3] (setting [6]) was greater than 1000 µM.

As for `N=C(N)NN` [AG, amino guanidine, reference compound], half-maximal inhibition in data set [1] (IC50) required 283 ± 8.52 µM.

With `COc1ccc(Cl)cc1C(=O)NCCc1ccc(S(=O)(=O)NC(=O)NC2CCCCC2)cc1` [Glibenclamide, reference compound], the Blood glucose concentration amounted to 20.2 ± 5.4 mM in data set [4] (dose 10 mg/kg per os, 0 h); 11.6 ± 4.9 mM in data set [4] (dose 10 mg/kg per os, 1.5 h); 7.6 ± 3.9 mM in data set [4] (dose 10 mg/kg per os, 3 h); 6.1 ± 3.6 mM in data set [4] (dose 10 mg/kg per os, 5 h); 5.7 ± 3.6 mM in data set [4] (dose 10 mg/kg per os, 7 h); 5.6 ± 3.6 mM in data set [4] (dose 10 mg/kg per os, 9 h). Moreover, the “% Variation of glycaemia” value in data set [4] (dose 10 mg/kg per os, 1.5 h vs 0 h) was “–42.63%”; in data set [4] (dose 10 mg/kg per os, 3 h vs 0 h), “–62.32%”; in data set [4] (dose 10 mg/kg per os, 5 h vs 0 h), “–69.58%”; in data set [4] (dose 10 mg/kg per os, 7 h vs 0 h) it was “–71.84%”; in data set [4] (dose 10 mg/kg per os, 9 h vs 0 h), “–72.11%”.

`COc1cc(/C=C/c2ccc(O)cc2)cc(OC)c1` [Pterostilbene, reference compound]: the IC50 in data set [1] is 1.99 ± 0.51 µM; in data set [2] (setting [5]), greater than 1000 µM; in data set [3] (setting [6]), greater than 1000 µM. Moreover, the hypoglycaemic effect in data set [4] (40 mg/kg of bw, STZ-diabetic animals, since 5 h and throughout the experiment) is listed as greater than 50%. Besides, the Blood glucose concentration in data set [4] (dose 40 mg/kg per os, 0 h) stood at 17.2 ± 7.0 mM; in data set [4] (dose 40 mg/kg per os, 1.5 h) it was 12.1 ± 6.4 mM; in data set [4] (dose 40 mg/kg per os, 3 h) it was 10.2 ± 6.2 mM; in data set [4] (dose 40 mg/kg per os, 5 h), 8.4 ± 5.6 mM; in data set [4] (dose 40 mg/kg per os, 7 h), 7.7 ± 5.3 mM; in data set [4] (dose 40 mg/kg per os, 9 h), 6.9 ± 4.3 mM. Moreover, the “% Variation of glycaemia” value in data set [4] (setting [7]) was “–29.91%”; in data set [4] (setting [8]), “–40.89%”; in data set [4] (setting [9]), “–51.42%”; in data set [4] (setting [10]) it was “–55.36%”; in data set [4] (setting [11]) it was “–59.82%”.

Turning to `O=c1c(O)c(-c2ccc(O)c(O)c2)oc2cc(O)cc(O)c12` [Quercetin, reference compound], in data set [3], the half-maximal inhibitory concentration (IC50) stood at 3.71 ± 0.29 µM.

Regarding `Oc1ccc(/C=C/c2cc(O)cc(O)c2)cc1` [Resveratrol, reference compound], the values for the IC50 in data set [1], in data set [2] and in data set [3] (setting [6]) were 0.83 ± 0.21 µM, 242 ± 17 µM and 17 ± 0.31 µM, respectively. The Blood glucose concentration in data set [4] (dose 40 mg/kg per os, 0 h) was found to be 20.0 ± 2.6 mM; in data set [4] (dose 40 mg/kg per os, 1.5 h), 16.3 ± 2.9 mM; in data set [4] (dose 40 mg/kg per os, 3 h), 14.0 ± 2.0 mM; in data set [4] (dose 40 mg/kg per os, 5 h), 12.4 ± 2.1 mM; in data set [4] (dose 40 mg/kg per os, 7 h) it was 11.2 ± 1.8 mM; in data set [4] (dose 40 mg/kg per os, 9 h), 10.7 ± 1.4 mM. In addition, the “% Variation of glycaemia” value was “–18.42%” in data set [4] (setting [7]); “–29.83%” in data set [4] (setting [8]); “–38.08%” in data set [4] (setting [9]); “–44.25%” in data set [4] (setting [10]); “–46.33%” in data set [4] (setting [11]).
